# Laboratory results published in ChEMBL document CHEMBL1201862, “PubChem BioAssay data set” (2004).
#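 Results reflect a 48-hour exposure of cells in 96-well plates to compound at five concentrations. Abbreviation: GI50, concentration required for 50% inhibition of growth.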 Calls of active or inactive are those of the source. No stated cut-off is given here; in the data, active = GI50 up to about 1.1 µM and inactive = higher.
# Experiments:
# Assay in all cases: NCI tumour cell line growth inhibition, 48 h
# HT-29 = test system: HT-29
# UACC-257 = test system: UACC-257
# NCI-H23 = test system: NCI-H23
# SNB-19 = test system: SNB-19
# NCI-H460 = test system: NCI-H460
# KM12 = test system: KM12
# KM-20L2 = test system: KM-20L2
# OVCAR-3 = test system: OVCAR-3
# OVCAR-5 = test system: OVCAR-5
# SK-OV-3 = test system: SK-OV-3
# DMS-273 = test system: DMS-273
# A549 = test system: A549
# M19-MEL = test system: M19-MEL
# HOP-92 = test system: HOP-92
# SK-MEL-28 = test system: SK-MEL-28
# NCI-H522 = test system: NCI-H522
# Malme-3M = test system: Malme-3M
# HOP-18 = test system: HOP-18
# A498 = test system: A498
# RXF 393 = test system: RXF 393
# SW-620 = test system: SW-620
# SF-295 = test system: SF-295
# SK-MEL-2 = test system: SK-MEL-2
# IGROV-1 = test system: IGROV-1
# LXFL 529 = test system: LXFL 529
# MOLT-4 = test system: MOLT-4
# HCT-116 = test system: HCT-116
# DLD-1 = test system: DLD-1
# SF-539 = test system: SF-539
# M14 = test system: M14
# SNB-75 = test system: SNB-75
# ACHN = test system: ACHN
# NCI-H226 = test system: NCI-H226
# SK-MEL-5 = test system: SK-MEL-5
# COLO 205 = test system: COLO 205
# HCT-15 = test system: HCT-15
# CAKI-1 = test system: CAKI-1
# UO-31 = test system: UO-31
# HL-60 = test system: HL-60
# SF-268 = test system: SF-268
# TK-10 = test system: TK-10
# 786-0 = test system: 786-0
# LOX IMVI = test system: LOX IMVI
# HCC 2998 = test system: HCC 2998
# K562 = test system: K562
# CCRF-CEM = test system: CCRF-CEM
# OVCAR-4 = test system: OVCAR-4
# UACC-62 = test system: UACC-62
# DMS-114 = test system: DMS-114
# EKVX = test system: EKVX
# MDA-MB-435 = test system: MDA-MB-435
# Hs-578T = test system: Hs-578T
# T47D = test system: T47D
# SNB-78 = test system: SNB-78
# DU-145 = test system: DU-145
# OVCAR-8 = test system: OVCAR-8
# MDA-N = test system: MDA-N
# U-251 = test system: U-251
# MCF7 = test system: MCF7
# SN12C = test system: SN12C
# PC-3 = test system: PC-3
# HOP-62 = test system: HOP-62
# BT-549 = test system: BT-549
# MDA-MB-231 = test system: MDA-MB-231
# RPMI-8226 = test system: RPMI-8226
smiles,measurement,setting,value
CC(=O)NNc1nc(C)c(C(/C=C/c2ccc(Cl)cc2)=N/NC(=O)C[N+](C)(C)C)s1,GI50,HT-29,> 100 µM (inactive)
same,GI50,UACC-257,> 100 µM (inactive)
same,GI50,NCI-H23,> 100 µM (inactive)
same,GI50,SNB-19,> 100 µM (inactive)
same,GI50,NCI-H460,> 100 µM (inactive)
same,GI50,KM12,> 100 µM (inactive)
same,GI50,KM-20L2,> 100 µM (inactive)
same,GI50,OVCAR-3,> 100 µM (inactive)
same,GI50,OVCAR-5,> 100 µM (inactive)
same,GI50,SK-OV-3,> 100 µM (inactive)
same,GI50,DMS-273,> 100 µM (inactive)
same,GI50,A549,> 100 µM (inactive)
same,GI50,M19-MEL,> 100 µM (inactive)
same,GI50,HOP-92,> 100 µM (inactive)
same,GI50,SK-MEL-28,> 100 µM (inactive)
same,GI50,NCI-H522,> 100 µM (inactive)
same,GI50,Malme-3M,> 100 µM (inactive)
same,GI50,HOP-18,> 100 µM (inactive)
same,GI50,A498,> 100 µM (inactive)
same,GI50,RXF 393,> 100 µM (inactive)
same,GI50,SW-620,> 100 µM (inactive)
same,GI50,SF-295,> 100 µM (inactive)
same,GI50,SK-MEL-2,> 100 µM (inactive)
same,GI50,IGROV-1,> 100 µM (inactive)
same,GI50,LXFL 529,> 100 µM (inactive)
same,GI50,MOLT-4,> 100 µM (inactive)
same,GI50,HCT-116,> 100 µM (inactive)
same,GI50,DLD-1,> 100 µM (inactive)
same,GI50,SF-539,> 100 µM (inactive)
same,GI50,M14,> 100 µM (inactive)
same,GI50,SNB-75,> 100 µM (inactive)
same,GI50,ACHN,> 100 µM (inactive)
same,GI50,NCI-H226,> 100 µM (inactive)
same,GI50,SK-MEL-5,> 100 µM (inactive)
same,GI50,COLO 205,> 100 µM (inactive)
same,GI50,HCT-15,> 100 µM
same,GI50,CAKI-1,> 100 µM (inactive)
same,GI50,UO-31,> 100 µM (inactive)
same,GI50,HL-60,> 100 µM (inactive)
same,GI50,SF-268,> 100 µM (inactive)
same,GI50,TK-10,> 100 µM (inactive)
same,GI50,786-0,> 100 µM (inactive)
same,GI50,LOX IMVI,> 100 µM (inactive)
same,GI50,HCC 2998,> 100 µM (inactive)
same,GI50,K562,> 100 µM (inactive)
same,GI50,CCRF-CEM,> 100 µM (inactive)
same,GI50,OVCAR-4,> 100 µM (inactive)
same,GI50,UACC-62,> 100 µM (inactive)
same,GI50,DMS-114,> 100 µM (inactive)
same,GI50,EKVX,> 100 µM (inactive)
O=C(O)CC/C(=N\Nc1nsc2ccccc12)c1ccc(Cl)cc1,GI50,HT-29,29.8 µM (inactive)
same,GI50,MDA-MB-435,27.5 µM (inactive)
same,GI50,Hs-578T,33.3 µM (inactive)
same,GI50,UACC-257,25.5 µM (inactive)
same,GI50,NCI-H23,21.2 µM (inactive)
same,GI50,SNB-19,> 64 µM (inactive)
same,GI50,T47D,31.2 µM (inactive)
same,GI50,NCI-H460,28.4 µM (inactive)
same,GI50,KM12,22.9 µM (inactive)
same,GI50,SNB-78,31.6 µM (inactive)
same,GI50,KM-20L2,41.1 µM (inactive)
same,GI50,OVCAR-3,18.3 µM (inactive)
same,GI50,OVCAR-5,54.5 µM (inactive)
same,GI50,SK-OV-3,32.6 µM (inactive)
same,GI50,DMS-273,20 µM (inactive)
same,GI50,A549,> 49.1 µM (inactive)
same,GI50,M19-MEL,35 µM (inactive)
same,GI50,HOP-92,24 µM (inactive)
same,GI50,SK-MEL-28,17.5 µM (inactive)
same,GI50,NCI-H522,34.5 µM (inactive)
same,GI50,Malme-3M,45 µM (inactive)
same,GI50,HOP-18,4.19 µM (inactive)
same,GI50,A498,37 µM (inactive)
same,GI50,DU-145,30.3 µM (inactive)
same,GI50,RXF 393,23.5 µM (inactive)
same,GI50,SW-620,28.6 µM (inactive)
same,GI50,SF-295,32.8 µM (inactive)
same,GI50,OVCAR-8,43.5 µM (inactive)
same,GI50,SK-MEL-2,36.5 µM (inactive)
same,GI50,IGROV-1,30.1 µM (inactive)
same,GI50,LXFL 529,19.4 µM (inactive)
same,GI50,MOLT-4,21.9 µM (inactive)
same,GI50,HCT-116,17.9 µM (inactive)
same,GI50,SF-539,31.5 µM (inactive)
same,GI50,M14,25.1 µM (inactive)
same,GI50,SNB-75,28.5 µM (inactive)
same,GI50,ACHN,28.2 µM (inactive)
same,GI50,MDA-N,31.3 µM (inactive)
same,GI50,NCI-H226,> 100 µM (inactive)
same,GI50,U-251,18 µM (inactive)
same,GI50,SK-MEL-5,22.2 µM (inactive)
same,GI50,MCF7,5.75 µM (inactive)
same,GI50,SN12C,26 µM (inactive)
same,GI50,COLO 205,43.4 µM (inactive)
same,GI50,PC-3,20.9 µM (inactive)
same,GI50,HOP-62,23.5 µM (inactive)
same,GI50,HCT-15,21.1 µM
same,GI50,CAKI-1,23.3 µM (inactive)
same,GI50,UO-31,21.1 µM (inactive)
same,GI50,HL-60,23.6 µM (inactive)
same,GI50,BT-549,25.1 µM (inactive)
same,GI50,MDA-MB-231,35.6 µM (inactive)
same,GI50,SF-268,21.9 µM (inactive)
same,GI50,TK-10,46.9 µM (inactive)
same,GI50,RPMI-8226,11 µM (inactive)
same,GI50,786-0,17.8 µM (inactive)
same,GI50,LOX IMVI,12.2 µM (inactive)
same,GI50,HCC 2998,17.5 µM (inactive)
same,GI50,K562,23 µM (inactive)
same,GI50,CCRF-CEM,6.84 µM (inactive)
same,GI50,OVCAR-4,20.8 µM (inactive)
same,GI50,UACC-62,19.8 µM (inactive)
same,GI50,DMS-114,25 µM (inactive)
same,GI50,EKVX,69.5 µM (inactive)
